Experimental findings from patent US4935425A, “4H-quinolizin-4-ones for treatment of diseases associated with immunoglobulin e-antibody formation” (Kissei Pharmaceutical Co., Ltd., priority 1987, dated 1990) are described below.

For orientation: inhibition means the relative decrease from the control value, in per cent.

Experiment [1] deals with IgE. Put plainly: Determination of IgE produced in in vitro culture of spleen cells from DNP-As immunized mice (ELISA). Type of experiment: cell-based, BALB/c mice. The conditions noted are these: Mus musculus, 96 h, 4 days culture, 37° C.; for inhibition at 20 µg/mL: 20 μg/ml; for inhibition at 10 µg/mL: 10 μg/ml. The protocol:
(§1) And the inhibitory activities of the quinolizinone derivative of formula (I) are further confirmed by the determination of serum concentrations of Igs in BALB/c mice which are immunized by DNP-As according to a procedure described in Immunology, Vol 21, pp 11-12, 1971.
(§2) BALB/c mice were immunized intraperitoneally with 5 μg of DNP-As adsorbed on 4 mg aluminum hydroxide gel Four weeks after the immunization,the spleens were excised from the mice and 5×10^7 spleen cells were transferred intravenously into the recipient mice which had been exposed to 600 rad of X-ray irradiation. Immediately after cell transfer, the recipients were then immunized intraperitoneally with 5 μg of DNP-As adsorbed on 4 mg aluminum hydroxide gel to induce adoptive secondary immune response. Further 4 weeks after the immunization of recipients, the spleens were excised from them and the spleen cell suspensions containing 5×10^6 cells/ml were cultured with or without a compound to be tested in 96-well micro-titer plates at 37° C. for 4 days. IgE and IgG secreted into the culture supernatant was each determined correspondingly by ELISA and the inhibitory effect was calculated according to the following equation. [formula]
A general note: ELISA stands for enzyme-linked immunosorbent assay.

The subject of experiment [2] is IgG. Put plainly: Determination of IgG (Igs other than IgE) produced in in vitro culture of spleen cells from DNP-As immunized mice (ELISA). In kind it is cell-based, BALB/c mice. The conditions noted are these: Mus musculus, 96 h, 4 days culture, 37° C.; for inhibition at 20 µg/mL: 20 μg/ml; for inhibition at 10 µg/mL: 10 μg/ml. On the procedure:
as §1, §2

As for `CCOC(=O)c1c(NCc2ccccn2)c(C#N)c(=O)n2ccccc12` [S-1, 3-Cyano-1-ethoxycarbonyl-2-(2-pyridylmethylamino)-4H-quinolizin-4-one], the results for the inhibition at 20 µg/mL in experiment [1] and in experiment [2] were 60% and 13%, respectively.
The corresponding values for `CCOC(=O)c1c(NCc2cccnc2)c(C#N)c(=O)n2ccccc12` [S-6, 3-Cyano-1-ethoxycarbonyl-2-(3-pyridylmethylamino)-4H-quinolizin-4-one] are 68% and 16%.
Regarding `CCOC(=O)c1c(NCc2cnccn2)c(C#N)c(=O)n2ccccc12` [S-14, 3-Cyano-1-ethoxycarbonyl-2-pyrazinylmethylamino-4H-quinolizin-4-one], the inhibition at 10 µg/mL in experiment [1] stood at 72%; in experiment [2] it was 1%.
Taken in the same sequence, the figures for `CCOC(=O)c1c(NCc2nccnc2C)c(C#N)c(=O)n2ccccc12` [S-15, 3-Cyano-1-ethoxycarbonyl-2-(3-methylpyrazinyl)methylamino-4H-quinolizin-4-one] were 73% and 3%.
On to `CCOC(=O)c1c(NCc2cnc(C)cn2)c(C#N)c(=O)n2ccccc12` [S-16, 3-Cyano-1-ethoxycarbonyl-2-(5-methylpyrazinyl)-methylamino-4H-quinolizin-4-one], for which the inhibition at 20 µg/mL in experiment [1] amounted to 68%; in experiment [2], 7%.
For `CCOC(=O)c1c(NCc2cncc(C)n2)c(C#N)c(=O)n2ccccc12` [S-17, 3-Cyano-1-ethoxycarbonyl-2-(6-methylpyrazinyl)-methylamino-4H-quinolizin-4-one], the inhibition at 10 µg/mL in experiment [1] was 68%; in experiment [2] it was 12%.
